Reference: patent US20260053861A1, “CELL COMPOSITIONS AND METHODS OF USING THE SAME” (THE REGENTS OF THE UNIVERSITY OF CALIFORNIA, priority 2022, published 2026)
Where a name gives a salt, the structure may show the parent alone.

tested on: hPSC-SCs; settings: not given

Compound	z.score.t
Oc1ccc2c3c1O[C@H]1[C@@H](O)CC[C@@]4(O)[C@@H](C2)N(CC2CCC2)CC[C@]314 [Nalbuphine hydrochloride]	0.1298
C[C@]12CC[C@H]3[C@@H](CCC4=CC(=O)CC[C@@H]43)[C@@H]1CC[C@@H]2O [Nandrolone]	1.306
C=C1[C@H]2C[C@@]3([C@@H]1O)[C@@H](C[C@@H]2O)[C@]12[C@@H]4C[C@H]3[C@H]1N(CC)C[C@]4(C)CC[C@@H]2O [Napelline]	1.178
CN(C)C(=O)Oc1cccc([N+](C)(C)C)c1 [Neostigmine bromide]	1.018
CNCCC(Oc1ccccc1OC)c1ccccc1 (stereo not drawn) [Nisoxetine hydrochloride]	0.4318
Cl.Cl.c1ccc2c3c([nH]c2c1)C1C2CCC(C4CCCNC42)N1CC3 (stereo not drawn) [Nitrarine dihydrochloride]	0.3022
CCN(CC)CCOC(=O)C1(c2ccc([N+](=O)[O-])cc2)CCCC1.Cl [Nitrocaramiphen hydrochloride]	1.242
C[C@@H]1[C@H](O)[C@@H](C)/C=C/C=C/CC/C=C/C=C/C=C/C=C/C(O[C@H]2O[C@H](C)[C@@H](O)[C@H](N)[C@@H]2O)CC2O[C@](O)(CC(O)C(O)CCC(O)CC(O)CC(O)CC(=O)O[C@H]1C)CC(O)C2C(=O)O (stereo partly drawn) [Nystatine]	1.992

same assay, conditions: HTS viability of hPSC-SCs in the presence of 30 mM glucose; Prestwick library; Table S4

Compound	z.score.t
CC1CCc2c(N3CCC(O)CC3)c(F)cc3c(=O)c(C(=O)O)cn1c23 (stereo not drawn) [Nadifloxacin]	−0.9598
CC(C)(C)NCC(O)COc1cccc2c1CC(O)C(O)C2 (stereo not drawn) [Nadolol]	0.7349
CCOc1ccc2ccccc2c1C(=O)N[C@@H]1C(=O)N2[C@@H]1SC(C)(C)[C@@H]2C(=O)O [Nafcillin sodium salt monohydrate]	1.323
CCN(CC)CCOC(=O)C(Cc1cccc2ccccc12)CC1CCCO1 (stereo not drawn) [Nafronyl oxalate]	2.094
CN(C/C=C/c1ccccc1)Cc1cccc2ccccc12 [Naftifine hydrochloride]	−1.168
COc1ccccc1N1CCN(CC(O)COc2cccc3ccccc23)CC1 (stereo not drawn) [Naftopidil dihydrochloride]	−0.9264
C=CCN1CC[C@]23c4c5ccc(O)c4O[C@H]2C(=O)CC[C@@]3(O)[C@H]1C5 [Naloxone hydrochloride]	0.84
O=C1CC[C@@]2(O)[C@H]3Cc4ccc(O)c5c4[C@@]2(CCN3CC2CC2)[C@H]1O5 [Naltrexone hydrochloride dihydrate]	0.754
c1ccc2c(CC3=NCCN3)cccc2c1 [Naphazoline hydrochloride]	0.7665
COc1ccc2cc([C@H](C)C(=O)O)ccc2c1 [Naproxen]	1.745
O=C1C[C@@H](c2ccc(O)cc2)Oc2cc(O)cc(O)c21 [Naringenine]	1.539
C[C@@H]1O[C@@H](O[C@H]2[C@H](Oc3cc(O)c4c(c3)O[C@H](c3ccc(O)cc3)CC4=O)O[C@H](CO)[C@@H](O)[C@@H]2O)[C@H](O)[C@H](O)[C@H]1O [Naringin hydrate]	1.659
CN1CCOC(c2ccccc2)c2ccccc2C1 (stereo not drawn) [Nefopam hydrochloride]	−0.3733
NC[C@@H]1O[C@H](O[C@H]2[C@@H](O)[C@H](O[C@@H]3[C@@H](O)[C@H](N)C[C@H](N)[C@H]3O[C@H]3O[C@H](CN)[C@@H](O)[C@H](O)[C@H]3N)O[C@@H]2CO)[C@H](N)[C@@H](O)[C@@H]1O.O=S(=O)(O)O [Neomycin sulfate]	−0.6492
O=C(O)c1cccnc1 [Niacin]	0.4105
O=C(CCNNC(=O)c1ccncc1)NCc1ccccc1 [Nialamide]	−0.7018
COC(=O)C1=C(C)NC(C)=C(C(=O)OCCN(C)Cc2ccccc2)C1c1cccc([N+](=O)[O-])c1 (stereo not drawn) [Nicardipine hydrochloride]	0.2189
CO[C@]12C[C@@H](COC(=O)c3cncc(Br)c3)CN(C)[C@@H]1Cc1cn(C)c3cccc2c13 [Nicergoline]	−0.2131
O=C(Nc1ccc([N+](=O)[O-])cc1Cl)c1cc(Cl)ccc1O [Niclosamide]	−1.794
O=C(NCCO[N+](=O)[O-])c1cccnc1 [Nicorandil]	0.599
Cc1c(NC(=O)c2cccnc2)c(=O)n(-c2ccccc2)n1C [Nifenazone]	−0.2425
O=C(O)c1cccnc1Nc1cccc(C(F)(F)F)c1 [Niflumic acid]	0.5856

Compound	z.score.t
O=C(N/N=C/c1ccc([N+](=O)[O-])o1)c1ccc(O)cc1 [Nifuroxazide]	0.8023
CC1CS(=O)(=O)CCN1/N=C/c1ccc([N+](=O)[O-])o1 (stereo not drawn) [Nifurtimox]	1.522
CC1(C)NC(=O)N(c2ccc([N+](=O)[O-])c(C(F)(F)F)c2)C1=O [Nilutamide]	0.1244
CS(=O)(=O)Nc1ccc([N+](=O)[O-])cc1Oc1ccccc1 [Nimesulide]	2.111
COCCOC(=O)C1=C(C)NC(C)=C(C(=O)OC(C)C)C1c1cccc([N+](=O)[O-])c1 (stereo not drawn) [Nimodipine]	−1.245
O=C1NCCN1c1ncc([N+](=O)[O-])s1 [Niridazole]	2.422
COC(=O)C1=C(C)NC(C)=C(C(=O)OCC(C)C)C1c1ccccc1[N+](=O)[O-] (stereo not drawn) [Nisoldipine]	−0.5992
CCOC(=O)C1=C(C)NC(C)=C(C(=O)OC)C1c1cccc([N+](=O)[O-])c1 (stereo not drawn) [Nitrendipine]	0.6177
NC(=O)N/N=C/c1ccc([N+](=O)[O-])o1 [Nitrofural]	0.767
O=C1CN(/N=C/c2ccc([N+](=O)[O-])o2)C(=O)N1 [Nitrofurantoin]	−0.03449
CNC(=C[N+](=O)[O-])NCCSCc1csc(CN(C)C)n1 [Nizatidine]	−0.0788
COC(=O)Nc1nc2ccc(C(=O)c3cccs3)cc2[nH]1 [Nocodazole]	−1.329
CC(=O)O[C@]1(C(C)=O)CC[C@H]2[C@@H]3C=C(C)C4=CC(=O)CC[C@@H]4[C@H]3CC[C@@]21C [Nomegestrol acetate]	0.7296
CN1Cc2c(N)cccc2C(c2ccccc2)C1 (stereo not drawn) [Nomifensine maleate]	−0.004573
CNCCC=C1c2ccccc2C=Cc2ccccc21 [Norcyclobenzaprine]	0.465
C#C[C@]1(O)CC[C@H]2[C@@H]3CCC4=CC(=O)CC[C@@H]4[C@H]3CC[C@@]21C [Norethindrone]	0.2479
C#C[C@]1(O)CC[C@H]2[C@@H]3CCC4=C(CCC(=O)C4)[C@H]3CC[C@@]21C [Norethynodrel]	1.857
CCn1cc(C(=O)O)c(=O)c2cc(F)c(N3CCNCC3)cc21 [Norfloxacin]	0.3922
C#C[C@]1(O)CC[C@H]2[C@@H]3CCC4=CC(=O)CC[C@@H]4[C@H]3CC[C@@]21CC [Norgestrel-(−)-D]	0.0116
CNCCC=C1c2ccccc2CCc2ccccc21 [Nortriptyline hydrochloride]	−1.753
COc1ccc2c(c1OC)C(=O)O[C@@H]2[C@H]1c2c(cc3c(c2OC)OCO3)CCN1C [Noscapine]	−0.3731
CO[C@@H]1[C@@H](OC(N)=O)[C@@H](O)[C@H](Oc2ccc3c(O)c(NC(=O)c4ccc(O)c(CC=C(C)C)c4)c(=O)oc3c2C)OC1(C)C [Novobiocin sodium salt]	1.481

Compound	z.score.t
CC1COc2c(N3CCN(C)CC3)c(F)cc3c(=O)c(C(=O)O)cn1c23 (stereo not drawn) [Ofloxacin]	−1.243
CO[C@H]1C[C@H](O[C@H]2[C@H](C)[C@@H](O[C@@H]3O[C@H](C)C[C@H](N(C)C)[C@H]3O)[C@@H](C)C[C@@]3(CO3)C(=O)[C@H](C)[C@@H](O)[C@@H](C)[C@@H](C)OC(=O)[C@@H]2C)O[C@@H](C)[C@@H]1O [Oleandomycin phosphate]	−0.5417
COc1ccc2[nH]c([S+]([O-])Cc3ncc(C)c(OC)c3C)nc2c1 (stereo not drawn) [Omeprazole]	0.1344
Cc1nccn1CC1CCc2c(c3ccccc3n2C)C1=O (stereo not drawn) [Ondansetron Hydrochloride]	−0.3173
Cc1ncc([N+](=O)[O-])n1CC(O)CCl (stereo not drawn) [Ornidazole]	0.1446
Cc1ccccc1C(OCCN(C)C)c1ccccc1 (stereo not drawn) [Orphenadrine hydrochloride]	−1.003
CCN(CC)CCc1nc(-c2ccccc2)no1.O=C(O)CC(O)(CC(=O)O)C(=O)O [Oxalamine citrate salt]	−0.3023
CN1CCCN=C1/C=C/c1cccc(O)c1.O=C(O)c1cc2ccccc2c(Cc2c(O)c(C(=O)O)cc3ccccc23)c1O [Oxantel pamoate]	−0.3936
O=C(O)CCc1nc(-c2ccccc2)c(-c2ccccc2)o1 [Oxaprozin]	0.0827
CN(C(=O)CN(CCO)CC(=O)N(C)C(C)(C)Cc1ccccc1)C(C)(C)Cc1ccccc1 [Oxethazaine]	−1.253
CCn1cc(C(=O)O)c(=O)c2cc3c(cc21)OCO3 [Oxolinic acid]	1.315
C=CCOc1ccccc1OCC(O)CNC(C)C (stereo not drawn) [Oxprenolol hydrochloride]	−1.046
COc1ccc(C(=O)c2ccccc2)c(O)c1 [Oxybenzone]	−0.6594
CCN(CC)CC#CCOC(=O)C(O)(c1ccccc1)C1CCCCC1 (stereo not drawn) [Oxybutynin chloride]	−0.7013
Cc1cc(C(C)(C)C)c(O)c(C)c1CC1=NCCN1 [Oxymetazoline hydrochloride]	−0.7524
CCCCC1C(=O)N(c2ccccc2)N(c2ccc(O)cc2)C1=O (stereo not drawn) [Oxyphenbutazone]	−0.8111
CN(C)[C@@H]1C(O)=C(C(N)=O)C(=O)[C@@]2(O)C(O)=C3C(=O)c4c(O)cccc4[C@@](C)(O)[C@H]3[C@H](O)[C@@H]12 [Oxytetracycline dihydrate]	−0.09426
O=C(O)/C=C/c1ccc(Cn2ccnc2)cc1 [Ozagrel hydrochloride]	−1.148
CC(=O)O[C@H]1C(=O)[C@@]2(C)[C@H]([C@H](OC(=O)c3ccccc3)[C@]3(O)C[C@H](OC(=O)[C@H](O)[C@@H](NC(=O)c4ccccc4)c4ccccc4)C(C)=C1C3(C)C)[C@]1(OC(C)=O)CO[C@@H]1C[C@@H]2O [Paclitaxel]	−1.418
COc1cc2c(cc1OC)-c1cc3ccc(OC)c(OC)c3c[n+]1CC2 [Palmatine chloride]	0.5822
